Here are results for twelve compounds from patent US7737123B2, “Multidrug resistant anticancer anthracyclines” (The Ohio State University Research Foundation, priority 2005, dated 2010).

Each structure is given as a SMILES string. pIC50: −log10 of the molar value. Where two headings read alike, the source gives them in different places.

Data set [1] concerns drug-resistant leukemia K562/Dox xenograft. Kind of data set: K562/Dox leukemia xenograft mouse model. Conditions: for tumor growth inhibition (in words): 5 or 10 mg/kg intraperitoneally twice per week for three weeks, one week after dose. As for the experimental part: In this animal model, 10^7 drug-resistant leukemia K562/Dox was injected subcutaneously into nude mice. […] The tumor volume was measured every three days.

Another data set concerns leukemia cells K562. Nature of the data set: Cytotoxicity in drug-sensitive leukemia K562 cells by MTS assay. It is filed as cell-based. Conditions: Homo sapiens; for pIC50: drug-sensitive K562, MTS assay, 72 hours, read-out: IC50 in K562; for IC50: drug-sensitive K562, values given in text in nM, read-out: IC50 against K562. As for the experimental part:
The drug resistance index (DRI, ratio of IC50 in drug-resistant cells over IC50 in drug-sensitive cells) is a good indicator of drug's ability to overcome resistance.
The anticancer activities of Compounds 1-6 were examined in leukemia cells K562 and doxorubicin-resistant K562/Dox cells by MTS assay. The drug-resistant K562/Dox cell line was induced by doxorubicin treatment. The cell line was cultured in 0.1 μM doxorubicin one week/per month, followed by 10 days culture without doxrubicin before experiment. This is to maintain similar high levels of P-gp expression in each experiment. In drug-resistant K562 cells, MDR1 mRNA was induced by 600-fold higher than drug-sensitive K562 cells as measured by real-time PCR (data not shown). […] Then 20 μL MTS/PMS assay solution was added to each well and the absorbance was recorded. The cell survival was calculated as percentage of cell control group without treatment. The anticancer activities are summarized in Table 2 and graphically illustrated in FIG. 5. The IC50 values were calculated by WinNonlin 4.1 (Pharsight) from the dose-response curves of percentage of cell growth with the model: E=Emax−(Emax−E0)×[C/(C+EC50)]
(In general: Tetrazolium assays rely on reduction of a dye to a coloured formazan, in cell work by metabolically active cells.)

Data set [2] concerns doxorubicin-resistant K562/Dox cells. Kind of data set: Cytotoxicity in doxorubicin-resistant K562/Dox cells by MTS assay. It is filed as cell-based. Conditions: for pIC50: Homo sapiens, drug-resistant K562/Dox, MTS assay, 72 hours; for DRI (drug resistance index): ratio of IC50 in drug-resistant cells over IC50 in drug-sensitive cells. As for the experimental part: The drug-resistant K562/Dox cell line was induced by doxorubicin treatment. The cell line was cultured in 0.1 μM doxorubicin one week/per month, followed by 10 days culture without doxrubicin before experiment. This is to maintain similar high levels of P-gp expression in each experiment. […] Then 20 μL MTS/PMS assay solution was added to each well and the absorbance was recorded. The cell survival was calculated as percentage of cell control group without treatment. […] The IC50 values were calculated by WinNonlin 4.1 (Pharsight) from the dose-response curves of percentage of cell growth with the model: E=Emax−(Emax−E0)×[C/(C+EC50)]

The next data set relates to K562/Dox. It is filed as cell-based.
In another data set the target is T1, P-gp (Homo sapiens, UniProt P08183).
T1 construct: endogenous in cells; host or cells: K562/Dox (doxorubicin-induced drug-resistant K562 leukemia cells)
Nature of the data set: P-gp export (uptake and efflux by FACS) in K562/Dox cells with or without CsA. It counts as cell-based. Conditions: CsA 5 μM, 30 min incubation. In general terms: Flow cytometry measures light scatter and fluorescence of single cells or particles in a stream.

Data set [3] relates to colon cancer cell line SW620 cells. Nature of the data set: Cytotoxicity in colon cancer cell line SW620 with MTS assay. It counts as cell-based. Conditions: for pIC50: read-out: IC50 in SW620. As for the experimental part:
The cytotoxicity of compounds DNR-1-DNR-6 prepared in this manner was examined in colon cancer cell line SW620 cells with MTS assay. […] Then 20 μL MTS/PMS assay solution was added to each well and the absorbance was recorded. The cell survival was calculated as percentage of cell control group without treatment. The IC50 of all these compounds against colon cancer cell line SW620 are summarized in Table 1 and graphically illustrated in FIGS. 1A and 1B. These IC50 values were calculated by WinNonlin 4.1 (Pharsight) from the dose-response curves of percentage of cell growth with the model: E=Emax−(Emax−E0)×[C/(C+EC50)].

Where [4] appears, read: 10 mg/kg twice per week for three weeks.

T1 sequence (P08183 whole entry): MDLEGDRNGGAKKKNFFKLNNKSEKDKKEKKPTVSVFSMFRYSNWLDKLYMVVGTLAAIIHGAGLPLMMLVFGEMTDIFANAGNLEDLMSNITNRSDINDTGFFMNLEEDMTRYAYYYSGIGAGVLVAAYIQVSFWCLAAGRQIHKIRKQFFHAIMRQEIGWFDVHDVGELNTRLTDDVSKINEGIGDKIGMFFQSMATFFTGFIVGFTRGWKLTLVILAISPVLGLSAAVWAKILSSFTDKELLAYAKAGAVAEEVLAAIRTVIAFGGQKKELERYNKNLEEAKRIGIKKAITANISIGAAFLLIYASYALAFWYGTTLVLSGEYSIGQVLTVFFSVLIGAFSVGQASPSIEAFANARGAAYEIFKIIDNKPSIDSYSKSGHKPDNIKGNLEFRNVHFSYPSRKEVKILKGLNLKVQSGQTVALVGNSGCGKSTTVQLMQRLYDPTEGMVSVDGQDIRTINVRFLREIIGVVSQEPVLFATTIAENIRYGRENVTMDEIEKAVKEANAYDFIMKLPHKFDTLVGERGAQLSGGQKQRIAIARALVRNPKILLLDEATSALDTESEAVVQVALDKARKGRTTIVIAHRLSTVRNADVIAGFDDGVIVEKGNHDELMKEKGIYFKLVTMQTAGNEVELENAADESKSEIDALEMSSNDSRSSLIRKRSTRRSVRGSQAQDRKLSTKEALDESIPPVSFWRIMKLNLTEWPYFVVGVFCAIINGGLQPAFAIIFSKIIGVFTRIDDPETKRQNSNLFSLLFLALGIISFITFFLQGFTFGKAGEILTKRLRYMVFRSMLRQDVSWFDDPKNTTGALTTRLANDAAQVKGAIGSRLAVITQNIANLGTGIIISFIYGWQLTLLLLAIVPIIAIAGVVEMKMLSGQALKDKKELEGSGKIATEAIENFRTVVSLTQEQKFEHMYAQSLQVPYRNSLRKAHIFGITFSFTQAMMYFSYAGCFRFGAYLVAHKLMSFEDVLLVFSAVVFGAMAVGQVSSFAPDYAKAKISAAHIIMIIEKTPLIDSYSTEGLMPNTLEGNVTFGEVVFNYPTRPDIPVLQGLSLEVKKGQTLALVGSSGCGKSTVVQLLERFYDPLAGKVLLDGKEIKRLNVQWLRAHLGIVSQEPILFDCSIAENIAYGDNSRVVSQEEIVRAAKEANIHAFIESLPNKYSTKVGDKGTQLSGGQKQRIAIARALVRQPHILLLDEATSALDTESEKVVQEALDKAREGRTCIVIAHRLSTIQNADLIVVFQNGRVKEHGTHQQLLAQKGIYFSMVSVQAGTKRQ

As usually defined, the pIC50 is the IC50 on a negative log10 scale, so that one unit is a factor of ten. As to `COc1cccc2c1C(=O)c1c(O)c3c(c(O)c1C2=O)C[C@@](O)(C(C)=O)C[C@@H]3OC1CC(N=[N+]=[N-])C(O)C(C)O1` (stereo partly drawn) [ADNR, 3′-azido-deamino-daunorubicin], the “fold higher maximum growth inhibition rate than DNR” value in data set [1] (5 mg/kg) worked out at 2.5 fold. For the same compound, in data set [1] (setting [4]), the body weight decrease entry was “did not show any significant body weight change” and the “survival after 50 days” value is recorded as 100%. Further, the “tumor growth inhibition (in words)” value in data set [1] is reported as “significantly inhibited tumor growth”. Also, the pIC50 with leukemia cells K562 was 7.12. For the same compound, in data set [2], the “fold more active than DNR against drug-resistant K562 cells” value is reported as “at least 5 fold”, the pIC50 was 6.00 and the “DRI (drug resistance index)” value is recorded as 13. Besides, the “DRI (drug resistance index)” value in data set [2] (listed as 8) is on record as 13.3. Moreover, the “fold lower DRI than that of DNR” value in data set [2] (versus DNR) was found to be 25 fold. Moreover, the “cell killing effect, drug alone” value with K562/Dox (1 μM, K562/Dox, without CsA) is listed as “more than 50%”. Further, the “cell killing effect in combination with CsA” value in the data set on K562/Dox (drug 1 μM plus CsA 5 μM, K562/Dox) was “did not change the cell killing effects”.

In general, IC50 refers to the point on the concentration scale where inhibition reaches its midpoint. `COc1cccc2c1C(=O)c1c(O)c3c(c(O)c1C2=O)C[C@@](O)(C(C)=O)C[C@@H]3OC1CC(N=[N+]=[N-])C(OC2CCC(O)C(C)O2)C(C)O1` (stereo partly drawn) [Compound 1]: in the data set on leukemia cells K562, the pIC50 was 6.10 and the IC50 lay within 200 to 1100 nM. In data set [2], the “DRI (drug resistance index)” value came out at 2.45.

Consider `COc1cccc2c1C(=O)c1c(O)c3c(c(O)c1C2=O)C[C@@](O)(C(C)=O)C[C@@H]3OC1CC(N=[N+]=[N-])C(OC2CC(O)C(O)C(C)O2)C(C)O1` (stereo partly drawn) [Compound 2], for which, in the data set with leukemia cells K562, the pIC50 is 6.54 and the IC50 was 200 to 1100 nM. Further, in data set [2] (K562, 72 h), the pIC50 is 5.26. Also, the “DRI (drug resistance index)” value in data set [2] was determined as 18.94.

`COc1cccc2c1C(=O)c1c(O)c3c(c(O)c1C2=O)C[C@@](O)(C(C)=O)C[C@@H]3OC1CC(N=[N+]=[N-])C(OC2CC(C)(OC)C(O)C(C)O2)C(C)O1` (stereo partly drawn) [Compound 4]: in the data set with leukemia cells K562, the pIC50 was 6.65 and the IC50 lay in the range of 200 to 1100 nM. For the same compound, the pIC50 in data set [2] (K562, 72 h) was 4.92. Besides, the “DRI (drug resistance index)” value in data set [2] turned out to be 53.64.

`COc1cccc2c1C(=O)c1c(O)c3c(c(O)c1C2=O)C[C@@](O)(C(C)=O)C[C@@H]3OC1CC(N=[N+]=[N-])C(OC2CC(N=[N+]=[N-])C(O)C(C)O2)C(C)O1` (stereo partly drawn) [Compound 6]: the pIC50 was 5.95 in the data set on leukemia cells K562 and 5.19 in data set [2] (K562, 72 h). The “DRI (drug resistance index)” value in data set [2] came to 5.64.

For the compound `COc1cccc2c1C(=O)c1c(O)c3c(c(O)c1C2=O)C[C@@](O)(C(C)=O)C[C@@H]3O[C@H]1C[C@H](N)[C@H](O)[C@H](C)O1` [DNR, daunorubicin, reference compound], in data set [1] (10 mg/kg), the “time by which 50% mice died” value is reported as under 20 days. Besides, the body weight decrease entry in data set [1] (setting [4]) is recorded as “more than 70%”. In data set [1] (10 mg/kg, due to both tumor growth and drug toxicity), the “time by which all mice died” value is listed as under 30 days. For the same compound, the “tumor growth inhibition (in words)” value in data set [1] is “significantly inhibited tumor growth”. The pIC50 was 7.82 in the data set with leukemia cells K562; under 5.30 in data set [2] (K562, 72 h); 7.48 in data set [3] (Homo sapiens, SW-620, 72 h). Moreover, the IC50 in the data set on leukemia cells K562 amounted to 15 nM. Besides, the “effect of P-gp inhibitor (CsA) on retention of drug in K562/Dox cells, uptake and efflux phases” value at P-gp was “significantly inhibited the drug efflux and increased drug accumulation”. Besides, the “cell killing effect in combination with CsA” value in the data set with K562/Dox was “more than 70%”. The “cell killing effect, drug alone” value with K562/Dox is 30%.

In the case of `COc1cccc2c1C(=O)c1c(O)c3c(c(O)c1C2=O)C[C@@](O)(C(C)=O)C[C@@H]3OC1OC(C)C(O)C(O)C1O` (stereo partly drawn) [DNR-1], the pIC50 in data set [3] (Homo sapiens, SW-620, 72 h) is 6.58.

Regarding `COc1cccc2c1C(=O)c1c(O)c3c(c(O)c1C2=O)C[C@@](O)(C(C)=O)C[C@@H]3OC1CC(C)(OC)C(O)C(C)O1` (stereo partly drawn) [DNR-3], the pIC50 in data set [3] (Homo sapiens, SW-620, 72 h) is under 6.00.

For the compound `COc1cccc2c1C(=O)c1c(O)c3c(c(O)c1C2=O)C[C@@](O)(C(C)=O)C[C@@H]3OC1CC(OC)C(O)C(C)O1` (stereo partly drawn) [DNR-4], in data set [3] (Homo sapiens, SW-620, 72 h), the pIC50 is 6.98.

On to `COc1cccc2c1C(=O)c1c(O)c3c(c(O)c1C2=O)C[C@@](O)(C(C)=O)C[C@@H]3OC1CCC(O)C(C)O1` (stereo partly drawn) [DNR-5], for which the pIC50 in data set [3] (Homo sapiens, SW-620, 72 h) was 6.46.

On to `COc1cccc2c1C(=O)c1c(O)c3c(c(O)c1C2=O)C[C@@](O)(C(C)=O)C[C@@H]3OC1CCC(N=[N+]=[N-])C(C)O1` (stereo partly drawn) [DNR-6], for which the “cytotoxicity in SW620 (in words)” value in data set [3] (FIG. 1B) was “lost its cytotoxicity”. Moreover, in data set [3] (Homo sapiens, SW-620, 72 h), the pIC50 was under 6.00.

Regarding `COc1cccc2c1C(=O)c1c(O)c3c(c(O)c1C2=O)C[C@@](O)(C(C)=O)C[C@@H]3O` [DNR-A, reference compound], the “fold lower cytotoxicity than compounds DNR-1-DNR-6” value in data set [3] is 70-100 fold. Further, the negative logarithm of the IC50 (pIC50) in data set [3] (MTS assay, 72 hours) is under 5.70.
